According to patent US7553967B2, “1,2-Dihydroquinoline derivatives and method for using the same to treat HIV infections” (Wyeth, priority 2004, dated 2009):
pIC50: −log10 of the molar value.

Target: T1, HIV Reverse transcriptase (RT) 66/p51 (Human immunodeficiency virus type 1 group M subtype B, UniProt P04585)
T1 construct: HIV Reverse transcriptase (RT) 66/p51; purchased Worthington
Experiment: RNA dependent DNA polymerase (RDDP) activity of HIV RT, 33P-TTP incorporation on polyrA-oligodT12-18, filter plate
Type: biochemical

Cc1cn([C@H]2C[C@H](N=[N+]=[N-])[C@@H](CO)O2)c(=O)[nH]c1=O [AZT]
pIC50: > 6.70
